Reference: patent US8299048B2, “Hexahydrocyclopentyl[f]indazole sulfonamides and derivatives thereof as selective glucocorticoid receptor modulators” (Merck Sharp & Dohme Corp., priority 2008, dated 2012)

Experiments:
human GR [1] = target: T1, human GR (Homo sapiens, UniProt P04150); test: Trans-Activation Modulation of Glucocorticoid Receptor (GRAMMER), MMTV-LUC reporter, agonist mode; format: cell-based; parameters: endogenous in cells; conditions: for Emax: A549, A549 cells, maximum activity, read-out: Transactivation A549 Cells GRAMMER Emax; for EC50: A549 cells, inflection point, read-out: Transactivation A549 Cells GRAMMER IP
T1 sequence (P04150 1-777): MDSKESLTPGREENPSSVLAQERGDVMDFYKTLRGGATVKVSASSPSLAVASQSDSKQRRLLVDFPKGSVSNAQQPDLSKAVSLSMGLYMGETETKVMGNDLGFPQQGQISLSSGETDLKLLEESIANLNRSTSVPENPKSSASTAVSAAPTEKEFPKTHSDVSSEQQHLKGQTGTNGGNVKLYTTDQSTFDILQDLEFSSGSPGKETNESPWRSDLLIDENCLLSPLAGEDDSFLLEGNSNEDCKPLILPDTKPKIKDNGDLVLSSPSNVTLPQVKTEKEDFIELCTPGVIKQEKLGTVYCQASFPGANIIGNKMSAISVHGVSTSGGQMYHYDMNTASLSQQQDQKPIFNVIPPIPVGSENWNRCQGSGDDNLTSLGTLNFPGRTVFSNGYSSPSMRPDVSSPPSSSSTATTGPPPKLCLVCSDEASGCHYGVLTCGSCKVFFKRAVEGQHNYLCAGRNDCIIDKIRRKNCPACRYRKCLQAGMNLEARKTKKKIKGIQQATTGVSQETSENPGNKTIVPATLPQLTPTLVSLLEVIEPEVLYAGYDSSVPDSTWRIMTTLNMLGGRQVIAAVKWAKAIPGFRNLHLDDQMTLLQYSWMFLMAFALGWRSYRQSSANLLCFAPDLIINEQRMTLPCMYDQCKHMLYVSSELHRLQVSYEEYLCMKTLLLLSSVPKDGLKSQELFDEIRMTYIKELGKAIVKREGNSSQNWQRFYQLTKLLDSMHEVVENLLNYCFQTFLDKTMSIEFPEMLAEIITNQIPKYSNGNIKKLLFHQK
Excerpt: This assay assesses the ability of test compounds to control transcription from the MMTV-LUC reporter gene in lung adenocarcinoma A549 cells or MDA-MB-453 cells, a human breast cancer cell line that naturally expresses the human GR. The assay measures induction of a modified MMTV LTR/promoter linked to the LUC reporter gene.
The routine transient assay consists of plating 7,000-25,000 cells/well of a white, clear-bottom 96-well plate. Alternatively, 384-well plates can be used at a cell concentration of 10,000/well. The media that the cells are plated in is “exponential growth medium” which consists of phenol red-free RPMI1640 containing 10% FBS, 4 mM L-glutamine, 20 mM HEPES, 10 ug/mL human insulin, and 20 ug/mL gentamicin. Incubator conditions are 37° C. and 5% CO2. The transfection is done in batch mode. The cells are trypsinized and counted to the right cell number in the proper amount of fresh media. It is then gently mixed with the FuGene6/DNA mix and plated onto the 96 or 384-well plate, all the wells receive 100 uL or 40 uL, respectively, of medium+lipid/DNA complex then incubated 37° C. overnight. The transfection cocktail consists of serum-free OptiMEM, FuGene6 reagent and DNA. The manufacturer's (Roche Biochemical) protocol for cocktail setup is as follows: The lipid to DNA ratio is approximately 2.5:1 and the incubation time is 20 min at room temperature. Sixteen to 24 hours after transfection, the cells are treated with dexamethasone to a final concentration of 10 nM as well as the compound of interest, such that final DMSO (vehicle) concentration is equal to or less than 1%. Each plate also contains samples that are treated with 10 nM dexamethasone alone, which is used as the 100% activity control. The cells are exposed to the compounds for 24 hours. After 24 hours, the cells are lysed by a Promega cell culture lysis buffer for approximately 30 min and then the luciferase activity in the extracts is assayed in the 96-well format luminometer. In 384-well format, Steady-Glo (Promega) or Steady-Lite (PerkinElmer) can be used by adding an equal volume of reagent to the media present in each well. Activity induced by 10 nM dexamethasone alone is set at 100% activity. Antagonist activity is calculated by determining the decrease in dexamethasone-induced activity in response to compound treatment relative to samples that were treated with dexamethasone alone. […] This transactivation assay can be performed in an agonist and antagonist mode to identify these different activities.

human GR [2] = target: T1, human GR; test: Transrepression Assay (GITAR), TNFα-β-lactamase reporter in U937 cells; format: cell-based; parameters: U937 cells contain an endogenous glucocorticoid receptor (GR); endogenous in cells; host or cells: U937 cells stably transfected with the TNF-alpha promoter/beta-lactamase reporter; conditions: for GITAR > GRAMM % SEP: GITAR Emax minus GRAMMER Emax; for EC50: U937 cells, inflection point, read-out: Transrepression U937 Cells GITAR IP
Excerpt: This assay assesses the ability of test compounds to control transcription from the TNFα-β-lactamase reporter gene in U937 cells, a human myelomonocytic leukemia cell line that naturally expresses the human GR. The assay measures compound dependent-repression of the TNFa promoter linked to a reporter gene.
The human U937 cells that had been stablely transfected with the TNF-α promoter driving β-lactamase are used for this assay. U937 cells contain an endogenous glucocorticoid receptor (GR). Cells are maintained in RPMI 1640 Growth medium (Gibco Cat#11875-093) containing 25 mM HEPES, 10% FBS, 2 mM L-Glutamine, 1 mM Sodium pyruvate, 25 μg/ml Gentamicin (Gibco Cat#15710-064), 1:1000 2-Mercaptoethanol (Gibco Cat#21985-023) and 0.8 mg/ml G418 (Gibco Cat#10131-027). The density of the cells in the flask needs to be about 1×10^6−3×10^6/ml at the time of harvest. Usually, the cells are split to 1.2˜1.4×10^5/ml (1:10) 3 days prior to the assay. 50,000 cells/well are plated in 96 well black-walled plates the day of assay. Test compounds are added 10 μL/well, and cells are incubated at 37° C. for 30˜45 min. For assaying compounds, first dilute 1:10 in DMSO to make 1 mM, then further dilute 1:100 in medium to make 10× stock prior to adding to the cells. Add 50 ng/mlPMA (Sigma, cat# P8139) 10 μL/well to a final concentration 5 ng/ml, and 1 μg/ml LPS (Sigma, cat# L4130) 10 μL/well to a final concentration 100 ng/ml. Incubate cells at 37° C. overnight for ˜18 hr. PMA is stored frozen as 100 μg/ml stock in DMSO. Dilute 1:10 in DMSO for a working stock of 10 μg/ml and store at −20 C. For assaying, dilute the 10 μg/ml working stock 1:200 in medium to make a 10× solution (50 ng/ml). Store frozen LPS at 1 mg/ml in PBS, dilute 1:1000 in medium to make 10× (1 μg/ml) for the assay. Add 6× loading buffer (CCF2-AM) 20 μL/well, and incubate at room temperature for 70˜90 min. […] The activity repressed by 100 nM dexamethasone alone is set as 100% activity.

[3] = U-937, U937 cells, maximum activity, read-out: Transrepression U937 Cells GITAR Emax
[4] = U-937, activity repressed by 100 nM dexamethasone alone set as 100%, read-out: maximal activity in the transrepression (GITAR) assay

In the case of `COc1ccccc1CCN(C[C@H]1CCC2=Cc3c(cnn3-c3ccc(F)cc3)C[C@@]21C)S(=O)(=O)CC(F)(F)F` [Example 120, 2,2,2-trifluoro-N-{[(4αR,5S)-1-(4-fluorophenyl)-4α-methyl-1,4,4α,5,6,7-hexahydrocyclopenta[f]indazol-5-yl]methyl}-N-[2-(2-methoxyphenyl)ethyl]ethanesulfonamide], the Emax (human GR [1]) is reported as 73.2%, the EC50 (human GR [1]) is reported as 110 nM and the “GITAR > GRAMM % SEP” value (human GR [2]) is reported as 18.2%. For the same compound, the EC50 (human GR [2]) was 77.8 nM, the Emax (human GR [2]; [3]) was 91.5% and the Emax (human GR [2]; [4]) was > 5%.

`C[C@]12Cc3cnn(-c4ccc(F)cc4)c3C=C1CC[C@@H]2CN(CCc1ccccc1F)S(=O)(=O)Cc1ccc(Cl)cc1Cl` [Example 105, 1-(2,4-dichlorophenyl)-N-[2-(2-fluorophenyl)ethyl]-N-{[(4αR,5S)-1-(4-fluorophenyl)-4α-methyl-1,4,4α,5,6,7-hexahydrocyclopenta[f]indazol-5-yl]methyl}methanesulfonamide] was tested, and the Emax (human GR [1]) was 85.5%, the EC50 (human GR [1]) was 193 nM and the “GITAR > GRAMM % SEP” value (human GR [2]) was 3.3%. For the same compound, the EC50 (human GR [2]) was 109 nM, the Emax (human GR [2]; [3]) was 88.8% and the Emax (human GR [2]; [4]) was > 5%.

With `COC(=O)c1ccccc1CCN(C[C@H]1CCC2=Cc3c(cnn3-c3ccc(F)cc3)C[C@@]21C)S(=O)(=O)CC(F)(F)F` [Example 159, methyl 2-(2-{{[(4αR,5S)-1-(4-fluorophenyl)-4α-methyl-1,4,4α,5,6,7-hexahydrocyclopenta[f]indazol-5-yl]methyl}[(2,2,2-trifluoroethyl)sulfonyl]amino}ethyl)benzoate] the Emax (human GR [1]) was 28.9%, the EC50 (human GR [1]) was 367 nM and the “GITAR > GRAMM % SEP” value (human GR [2]) was 5.2%. The EC50 (human GR [2]) was 551 nM, the Emax (human GR [2]; [3]) was 34.1% and the Emax (human GR [2]; [4]) was > 5%.

With `C[C@]12Cc3cnn(-c4ccc(F)cc4)c3C=C1CC[C@@H]2CN(CC(O)C(F)F)S(=O)(=O)Cc1cccnc1` (stereo partly drawn) [Example 154, N-(3,3-difluoro-2-hydroxypropyl)-N-{[(4αR,5S)-1-(4-fluorophenyl)-4α-methyl-1,4,4α,5,6,7-hexahydrocyclopenta[f]indazol-5-yl]methyl}-1-pyridin-3-ylmethanesulfonamide] the Emax (human GR [1]) was 17.9%, the EC50 (human GR [1]) was 509 nM and the “GITAR > GRAMM % SEP” value (human GR [2]) was 48.7%. The EC50 (human GR [2]) was 616 nM, the Emax (human GR [2]; [3]) was 66.5% and the Emax (human GR [2]; [4]) was > 5%.

For `C[C@]12Cc3cnn(-c4ccc(F)cc4)c3C=C1CC[C@@H]2CN(CCc1ccccn1)S(=O)(=O)Cc1ccncc1` [Example 166, N-{[(4αR,5S)-1-(4-fluorophenyl)-4α-methyl-1,4,4α,5,6,7-hexahydrocyclopenta[f]indazol-5-yl]methyl}-1-pyridin-4-yl-N-(2-pyridin-2-ylethyl)methanesulfonamide], the Emax (human GR [1]) was 56.4%, the EC50 (human GR [1]) was 303 nM and the “GITAR > GRAMM % SEP” value (human GR [2]) was 15.3%. For the same compound, the EC50 (human GR [2]) was 549 nM, the Emax (human GR [2]; [3]) was 71.7% and the Emax (human GR [2]; [4]) was > 5%.

In the case of `C[C@]12Cc3cnn(-c4ccc(F)cc4)c3C=C1CC[C@@H]2CN(CCc1ccccc1O)S(=O)(=O)Cc1cccc(C(F)(F)F)c1` [Example 122, N-{[(4αR,5S)-1-(4-fluorophenyl)-4α-methyl-1,4,4α,5,6,7-hexahydrocyclopenta[f]indazol-5-yl]methyl}-N-[2-(2-hydroxyphenyl)ethyl]-1-[3-(trifluoromethyl)phenyl]methanesulfonamide], the Emax (human GR [1]) is reported as 8.9%, the EC50 (human GR [1]) is reported as 502 nM and the “GITAR > GRAMM % SEP” value (human GR [2]) is reported as 30.8%. The EC50 (human GR [2]) was 417 nM, the Emax (human GR [2]; [3]) was 39.7% and the Emax (human GR [2]; [4]) was > 5%.

`C[C@]12Cc3cnn(-c4ccc(F)cc4)c3C=C1CC[C@@H]2CN(CC(O)C(F)F)S(=O)(=O)CC(F)(F)F` (stereo partly drawn) [Example 133, N-(3,3-difluoro-2-hydroxypropyl)-2,2,2-trifluoro-N-{[(4αR,5S)-1-(4-fluorophenyl)-4α-methyl-1,4,4α,5,6,7-hexahydrocyclopenta[f]indazol-5-yl]methyl}ethanesulfonamide] was tested, and the Emax (human GR [1]) was 73.4%, the EC50 (human GR [1]) was 67.5 nM and the “GITAR > GRAMM % SEP” value (human GR [2]) was 22.5%. For the same compound, the EC50 (human GR [2]) was 82.6 nM, the Emax (human GR [2]; [3]) was 95.9% and the Emax (human GR [2]; [4]) was > 5%.

For `Cn1cc(S(=O)(=O)N(CC(O)C(F)F)C[C@H]2CCC3=Cc4c(cnn4-c4ccc(F)cc4)C[C@@]32C)c(C(F)(F)F)n1` (stereo partly drawn) [Example 156, N-(3,3-difluoro-2-hydroxypropyl)-N-{[(4αR,5S)-1-(4-fluorophenyl)-4α-methyl-1,4,4α,5,6,7-hexahydrocyclopenta[f]indazol-5-yl]methyl}-1-methyl-3-(trifluoromethyl)-1H-pyrazole-4-sulfonamide], the Emax (human GR [1]) was 4.5%, the EC50 (human GR [1]) was 193 nM and the “GITAR > GRAMM % SEP” value (human GR [2]) was 15.0%. The EC50 (human GR [2]) was 229 nM, the Emax (human GR [2]; [3]) was 19.5% and the Emax (human GR [2]; [4]) was > 5%.

In the case of `Cc1noc(C)c1S(=O)(=O)NC[C@H]1CCC2=Cc3c(cnn3-c3ccc(F)cc3)C[C@@]21C` [Example 161, N-{[(4αR,5S)-1-(4-fluorophenyl)-4α-methyl-1,4,4α,5,6,7-hexahydrocyclopenta[f]indazol-5-yl]methyl}-3,5-dimethylisoxazole-4-sulfonamide], the Emax (human GR [1]) is reported as 18.3%, the EC50 (human GR [1]) is reported as 419 nM and the “GITAR > GRAMM % SEP” value (human GR [2]) is reported as 26.7%. The EC50 (human GR [2]) was 930 nM, the Emax (human GR [2]; [3]) was 45% and the Emax (human GR [2]; [4]) was > 5%.
